Assay results reported in PubChem BioAssay AID1508612.

Assay: passive permeability, PAMPA, ADME assay (AID 1508612)
Details: pH 7.4, 30.0 min, 50.0 µM

Row | SMILES | Papp
1 | Cn1c2cc(S(C)=O)sc2c2cnn(Cc3cccc(N)c3)c(=O)c21 (stereo not drawn) | 106 ×10⁻⁶ cm/s
2 | Cc1ccc2c(c1)N(S(=O)(=O)c1cc(-c3onc(C)c3C)ccc1C)CCO2 | 664 ×10⁻⁶ cm/s
3 | Cc1nnc(-c2ccccc2C(C)C)nc1NCc1ccc(-c2cccnc2)cc1 | > 1000 ×10⁻⁶ cm/s
4 | CNC(=O)C1CCN(c2nc(-c3ccc(Br)cc3)cs2)CC1 | 736 ×10⁻⁶ cm/s
5 | c1ccc2c(Nc3ccn[nH]3)nc(-c3ccncc3)nc2c1 | 880 ×10⁻⁶ cm/s
6 | COc1ccc2[nH]c(C[C@@H]3C[C@@H](C(C)C)[C@H](CNCc4ccccc4O)C=C3C)nc2n1 | > 1000 ×10⁻⁶ cm/s
7 | O=C(O)Cn1c(C(=O)Nc2nc(-c3ccccc3Cl)cs2)cc2ccccc21 | 21.5 ×10⁻⁶ cm/s
8 | Brc1ccc(-c2csc(N3CCOCC3)n2)cc1 | < 1 ×10⁻⁶ cm/s
9 | COc1ccc(-c2csc(NC(=O)c3ccncc3NS(=O)(=O)c3ccc(C)cc3)n2)cc1 | > 1000 ×10⁻⁶ cm/s
10 | O=C1CCCC2=C1C(c1[nH]ncc1Cl)N=C(Nc1nc3ccc(Cl)cc3o1)N2 (stereo not drawn) | 651 ×10⁻⁶ cm/s
11 | O=C(Nc1ccccc1-c1cn2c(CN3CCNCC3)csc2n1)c1cnc2ccccc2n1 | 239 ×10⁻⁶ cm/s
12 | COCCCOc1ccnc(CS(=O)c2nc3ccccc3[nH]2)c1C (stereo not drawn) | 212 ×10⁻⁶ cm/s
13 | O=C1c2ccccc2C2=Nc3ccccc3SC(c3ccccc3F)C12 (stereo not drawn) | < 1 ×10⁻⁶ cm/s
14 | COc1ccccc1C(=O)Nc1nc2nc(C)cc(=O)n2[nH]1 | 7.8 ×10⁻⁶ cm/s
15 | Cc1ccc(-c2csc(Nc3ccc(S(=O)(=O)Nc4nccs4)cc3)n2)cc1C | 22 ×10⁻⁶ cm/s
16 | Cc1cc(C)c(CNC(=O)c2nc(-c3cccc(CO)c3)cc3c2ccn3C)c(=O)[nH]1 | > 1000 ×10⁻⁶ cm/s
17 | CCOc1ccccc1C(=O)Nc1cccnc1C(=O)Nc1cccc(S(=O)(=O)C(F)(F)F)c1 | 8.1 ×10⁻⁶ cm/s
18 | O=C(NCC1CCOCC1)C1CC(=O)N(c2n[nH]c3cc(Br)ccc23)C1 (stereo not drawn) | 16.1 ×10⁻⁶ cm/s
19 | Cc1cccc(-c2noc([C@@H]3Cc4nc[nH]c4CN3C(=O)CC(C)(C)CC(=O)O)n2)c1 | 34.2 ×10⁻⁶ cm/s
20 | CCN(CC)C(=O)N1c2ccccc2C=Cc2ccccc21 | > 1000 ×10⁻⁶ cm/s
21 | Cc1c(-c2cccc(NC(=O)c3ccc(F)c(F)c3)c2)nc2ncccn12 | 908 ×10⁻⁶ cm/s
22 | CCOc1ccc(CCNC(=O)c2cc3sccc3n2CCN2CCOCC2)cc1OCC | > 1000 ×10⁻⁶ cm/s
23 | Cc1nc([C@](C)(O)CO)sc1-c1cnc(N)c(O[C@H](C)c2cc(F)ccc2-n2nccn2)c1 | 414 ×10⁻⁶ cm/s
24 | O=C1CCCC2=C1C(c1[nH]ncc1Cl)N=C(Nc1nc3c(Br)cccc3o1)N2 (stereo not drawn) | 531 ×10⁻⁶ cm/s
25 | Fc1cc(Nc2nc(-c3ccncc3)nc3ccccc23)ccc1-c1ccnc(C(F)(F)F)c1 | 11.6 ×10⁻⁶ cm/s
26 | O=S(=O)(Nc1nccs1)c1ccc(NCc2cccc(Br)c2O)cc1 | 72.7 ×10⁻⁶ cm/s

Row | SMILES | Papp
27 | COc1ccc(-c2cc3nccn3c(Nc3ncccc3C(N)=O)n2)cc1OC | 26.4 ×10⁻⁶ cm/s
28 | Oc1c(C(Nc2nccs2)c2ccc(C(F)(F)F)cc2)ccc2cccnc12 (stereo not drawn) | 41.6 ×10⁻⁶ cm/s
29 | O=C(Nc1nc(-c2ccccn2)cs1)c1cccc(-n2cnnn2)c1 | 290 ×10⁻⁶ cm/s
30 | COc1cccc(S(=O)(=O)Nc2cnccc2C(=O)Nc2nc(-c3ccccc3)cs2)c1 | 696 ×10⁻⁶ cm/s
31 | CC(C)(O)Cn1c(NC(=O)c2ccc(-c3cn[nH]c3)s2)nc2cc(CN3CCOCC3)ccc21 | 368 ×10⁻⁶ cm/s
32 | CCOc1ccc(N2CC(c3nc(-c4cc(OC)c(OC)c(OC)c4)no3)CC2=O)cc1 (stereo not drawn) | > 1000 ×10⁻⁶ cm/s
33 | CC(=O)c1c(C)[nH]c(C(=O)Nc2cccc(S(=O)(=O)N3CCCCC3)c2)c1C | > 1000 ×10⁻⁶ cm/s
34 | CCOc1ccc(/C=C/c2nc3ccccc3n2S(=O)(=O)c2ccc(Br)cc2)cc1 | 926 ×10⁻⁶ cm/s
35 | Cc1cc(NS(=O)(=O)c2ccc(NC(=O)Cc3ccc(Cl)c(F)c3)cc2)no1 | 11.5 ×10⁻⁶ cm/s
36 | COc1ccccc1NC(=O)C1=C(C)Nc2c(C(=O)Nc3ccc(F)cc3)cnn2C1c1ccc(Cl)cc1 (stereo not drawn) | 302 ×10⁻⁶ cm/s
37 | O=C(Nc1ncccc1O)c1ccc(S(=O)(=O)Nc2ccccc2)cc1 | 344 ×10⁻⁶ cm/s
38 | CN(C)CCNC(=O)c1nc(-c2ccccc2)cc2[nH]ccc12 | 838 ×10⁻⁶ cm/s
39 | CCOc1ccccc1N(CC(=O)N1CCOCC1)S(=O)(=O)c1ccc(SC)cc1 | 550 ×10⁻⁶ cm/s
40 | Fc1cc(Nc2nc(-c3ccncc3)nc3ccccc23)ccc1-c1ccc(F)c(F)c1F | 57.5 ×10⁻⁶ cm/s
41 | COc1cccc(-c2csc(NC(=O)c3ccncc3NS(=O)(=O)c3ccc(C)cc3)n2)c1 | > 1000 ×10⁻⁶ cm/s
42 | Cc1cccc(C)c1Nc1c(-c2cccs2)nc2ncccn12 | 969 ×10⁻⁶ cm/s
43 | COc1ccc(C2c3c(ncn(CCN4CCOCC4)c3=N)Oc3ccc4ccccc4c32)cc1OC (stereo not drawn) | > 1000 ×10⁻⁶ cm/s
44 | CS(=O)(=O)c1ccc(-c2csc(N3CCC(C(N)=O)CC3)n2)cc1 | 74 ×10⁻⁶ cm/s
45 | CC(=O)NCc1ccc(-c2csc(Nc3cccc(C)c3)n2)o1 | > 1000 ×10⁻⁶ cm/s
46 | CCOc1cc2ncc(C#N)c(Nc3ccc(OCc4ccccn4)c(Cl)c3)c2cc1NC(=O)C=CCN(C)C | < 1 ×10⁻⁶ cm/s
47 | CSc1cc2c(s1)c1cnn(Cc3cccc(N)c3)c(=O)c1n2C | > 1000 ×10⁻⁶ cm/s
48 | COc1cc(-c2nc(-c3ccccc3)c(-c3cccs3)[nH]2)cc(OC)c1O | 530 ×10⁻⁶ cm/s
49 | COc1cc2c3cc1Oc1c(O)c(OC)cc4c1[C@@H](Cc1ccc(cc1)Oc1cc(ccc1O)C[C@H]3N(C)CC2)N(C)CC4 | 327 ×10⁻⁶ cm/s
50 | CCc1ccc(-n2nnc(-c3nsc(NC(=O)c4ccccc4Cl)n3)c2C)cc1 | 615 ×10⁻⁶ cm/s
51 | CNc1oc(-c2cccc(-c3ccccc3)c2)nc1C#N | 918 ×10⁻⁶ cm/s
52 | Cc1ccccc1C(=O)NC1CCN(c2ccc3nnc(C4CC4)n3n2)CC1 | 97.8 ×10⁻⁶ cm/s

Row | SMILES | Papp
53 | Cc1nc2c(-c3ccccc3)cnn2c(N)c1-c1ccccc1 | 207 ×10⁻⁶ cm/s
54 | CCCNC(=O)c1ccc2c(c1)ncn2-c1cc(C)cc(C)c1 | > 1000 ×10⁻⁶ cm/s
55 | O=S(=O)(Nc1cccc2ccncc12)c1ccc(NCc2cccc(Cl)c2O)cc1 | > 1000 ×10⁻⁶ cm/s
56 | CN(C(=O)COC(=O)c1csc(NCc2ccccc2)n1)c1ccccc1 | > 1000 ×10⁻⁶ cm/s
57 | CC(=O)c1c(C)[nH]c(C(=O)Nc2cccc([S+](=O)([O-])N3CC[C@@H](F)C3)c2)c1C | 199 ×10⁻⁶ cm/s
58 | COc1ccc(C(=O)Nc2nc(-c3ccccc3)cs2)cc1NS(=O)(=O)c1ccc(C)cc1 | 14.9 ×10⁻⁶ cm/s
59 | CC(C)c1ccccc1-c1ncc(F)c(NCC2CCN(c3cnccn3)C2)n1 (stereo not drawn) | > 1000 ×10⁻⁶ cm/s
60 | Cc1n[nH]c(C)c1CCc1nc2c3ccccc3nc(SCC(=O)Nc3ccc(F)cc3)n2n1 | 122 ×10⁻⁶ cm/s
61 | COc1cccc(-n2ncc3c2CCCC3NC(=O)c2ccccn2)c1 (stereo not drawn) | > 1000 ×10⁻⁶ cm/s
62 | O=c1c(-c2cccs2)ccc2n1C[C@H]1C[C@@H]2CN(C2CCOCC2)C1 | 460 ×10⁻⁶ cm/s
63 | CCOc1ccc(CCNC(=O)c2cc3sccc3n2C)cc1OCC | > 1000 ×10⁻⁶ cm/s
64 | COc1cc2c(cc1-c1c(C)noc1C)ncc1[nH]c(=O)n([C@H](C)c3ccccn3)c12 | 858 ×10⁻⁶ cm/s
65 | COc1cc(O)c([C@H](CC(=O)N2CC(C)CC(C)C2)c2ccc3c(c2)OCO3)c(OC)c1 (stereo partly drawn) | > 1000 ×10⁻⁶ cm/s
66 | O=C(Nc1ccc(S(=O)(=O)Nc2nccs2)cc1)c1ccncc1 | 1.4 ×10⁻⁶ cm/s
67 | Cc1ccnc(NC(=S)N2CCN(c3ccc(C(F)(F)F)cc3)CC2)c1 | 587 ×10⁻⁶ cm/s
68 | CC[C@H]1C=CC=CC[C@@H](C)[C@H](O)[C@@](C)(O)C(=O)[C@@H](C)[C@H](O)[C@@H](C)C(=O)[C@@H](C)[C@H](O)[C@@H](C)C=CC(=O)O[C@@H]2[C@@H](C)[C@H](CC1)O[C@]1(CC[C@H](C)[C@H](C[C@@H](C)O)O1)[C@H]2C | < 1 ×10⁻⁶ cm/s
69 | Nc1nc2c(s1)C(c1cccc(Cl)c1Cl)CC(=O)N2 (stereo not drawn) | 505 ×10⁻⁶ cm/s
70 | CCC(CC)c1cc([C@H]2CN3CC[C@H]2C[C@@H]3CNC(=O)COc2ccccc2)nc(-c2ccncc2)n1 | 790 ×10⁻⁶ cm/s
71 | COc1cccc(CNc2ccc(S(=O)(=O)Nc3nccs3)cc2)c1OC | 313 ×10⁻⁶ cm/s
72 | c1ccc2c(NC3CCCCC3)nc(-c3ccncc3)nc2c1 | > 1000 ×10⁻⁶ cm/s
73 | Cc1cccc2c1NC(=O)/C2=C/c1cc(Cl)c(O)c(Cl)c1 | 66.3 ×10⁻⁶ cm/s
74 | Cc1cnc(-c2ccccc2C(F)F)nc1NCC1CN(c2cnccn2)C1 | > 1000 ×10⁻⁶ cm/s
75 | COc1ccc(Nc2nc(-c3ccncc3)nc3ccccc23)cc1F | 107 ×10⁻⁶ cm/s
76 | Fc1cc(Nc2nc(-c3ccncc3)nc3ccccc23)ccc1-c1cccnc1 | 5.4 ×10⁻⁶ cm/s
77 | COCCNC(=O)c1ccc(-c2ccc(N3CCCCC3)nc2)cc1 | > 1000 ×10⁻⁶ cm/s
78 | C[C@@H](NC(=O)c1ncnc(N)c1Cl)c1ncc(C(=O)Nc2cc(C(F)(F)F)c(Cl)cn2)s1 | > 1000 ×10⁻⁶ cm/s

Row | SMILES | Papp
79 | Cc1ccc(NC(=O)N(Cc2cn(C)c3ccccc23)C2CCCCC2)cc1C | 20.7 ×10⁻⁶ cm/s
80 | O=C1CCCC2=C1C(c1[nH]ncc1Cl)N=C(Nc1nc3cccc(Cl)c3o1)N2 (stereo not drawn) | > 1000 ×10⁻⁶ cm/s
81 | Cc1ccc(S(=O)(=O)Nc2cnccc2C(=O)Nc2nc(-c3ccc(Cl)c(Cl)c3)cs2)cc1 | 51.5 ×10⁻⁶ cm/s
82 | CNc1oc(-c2ccc(-c3ccccc3)cc2)nc1C#N | > 1000 ×10⁻⁶ cm/s
83 | O=C(Nc1ccccc1F)c1nc(S(=O)(=O)Cc2ccccc2F)ncc1Cl | 891 ×10⁻⁶ cm/s
84 | N=c1c2c(ccn1CCc1ccccc1)Oc1ccc3ccccc3c1C2c1ccccc1 (stereo not drawn) | 553 ×10⁻⁶ cm/s
85 | Cc1cc2ccccc2n1CC(=O)NC1CCCCC1 | 634 ×10⁻⁶ cm/s
86 | CCOC(=O)c1nnc(N[S+](=O)([O-])c2ccc(NC(=O)Cc3ccc(Cl)c(Cl)c3)cc2)s1 | 1.1 ×10⁻⁶ cm/s
87 | COc1cc(C2CC(=O)Nc3cc4c(cc32)OCCO4)cc(Br)c1OC (stereo not drawn) | 376 ×10⁻⁶ cm/s
88 | COc1ccc2[nH]cc(CCNC(=O)c3cnn(-c4ccc(C)cc4)c3C3CCN(C(=O)OC(C)(C)C)CC3)c2c1 | 153 ×10⁻⁶ cm/s
89 | COc1ccc(OC)c(-c2cc(C(=O)N3CCN(c4ncccn4)CC3)c3ccccc3n2)c1 | > 1000 ×10⁻⁶ cm/s
90 | CCc1cccc(NC(=O)C(Cc2ccccc2)NS(=O)(=O)c2cccs2)c1 (stereo not drawn) | 887 ×10⁻⁶ cm/s
91 | Cn1c(=O)c2[nH]c(=O)[nH]c2n(C)c1=O | 1.71 ×10⁻⁶ cm/s
92 | COC(=O)c1ccc(NS(=O)(=O)c2c(C)nc3sccn3c2=O)cc1 | 333 ×10⁻⁶ cm/s
93 | COc1ccc2[nH]c(=O)c(-c3noc(-c4cccs4)n3)cc2c1 | 351 ×10⁻⁶ cm/s
94 | c1cn2cc(-c3ccc4cn[nH]c4c3)nc(Nc3ccc(N4CCOCC4)cc3)c2n1 | 391 ×10⁻⁶ cm/s
95 | Cc1ccc(S(=O)(=O)Nc2cnccc2C(=O)Nc2nc(-c3cccnc3)cs2)cc1 | 104 ×10⁻⁶ cm/s
96 | Fc1ccc(N2CCCN(CC3[C@H]4CNC[C@@H]34)CC2)cc1 (stereo partly drawn) | 196 ×10⁻⁶ cm/s
97 | CCOc1ccc(CCNC(=O)c2cc3ccncc3n2Cc2cccc(C)c2)cc1OCC | 20.6 ×10⁻⁶ cm/s
98 | CSc1ncc(Cl)c(C(=O)Nc2c(C)cccc2C)n1 | 508 ×10⁻⁶ cm/s
99 | COc1ccc(NS(=O)(=O)c2ccc(C)c(C(=O)Nc3ccc4oc(C)nc4c3)c2)cc1 | 737 ×10⁻⁶ cm/s
100 | O=C(c1nc(-c2cccnc2)c2ccccn12)N1CCN(c2ncccn2)CC1 | > 1000 ×10⁻⁶ cm/s
101 | COc1cccc(Nc2nc(-c3ccncc3)nc3ccccc23)c1 | > 1000 ×10⁻⁶ cm/s
102 | CC1=NN(c2ccc(C(=O)O)cc2)C(=O)/C1=C/c1ccc(-c2cc(C)c(C)cc2[N+](=O)[O-])o1 | 238 ×10⁻⁶ cm/s
103 | Nc1ccccc1CNc1ccc(S(=O)(=O)Nc2nccs2)cc1 | 1.09 ×10⁻⁶ cm/s
